For assay [1], the system named is Human immunodeficiency virus 1. Kind of assay: Resistance index, ratio of EC50 for SQV-resistant HIV1 SaqR carrying G48V/L90MV mutation to EC50 for wild type HIV1 NL4-3 in HEK293 cells after 48 hrs by replication-deffective luciferase reporter gene-based phenotypic assay. The assay is classed as functional. In general terms: Reporter assays use an easily measured gene product as a stand-in for the process of interest.

Assay [2] concerns Human immunodeficiency virus 1. Kind of assay: Resistance index, ratio of EC50 for SQV-resistant HIV1 4596 carrying L10R/M46I/L63P/[…]/L90M mutation to EC50 for wild type HIV1 NL4-3 in HEK293 cells after 48 hrs by replication-deffective luciferase reporter gene-based phenotypic assay. The assay is classed as functional.
Assay [3] can be described thus: Inhibition of pig pepsin. On the set-up: species or system Sus scrofa.

This is an account of results in ChEMBL document CHEMBL1137017, “In vitro antiviral activity and cross-resistance profile of PL-100, a novel protease inhibitor of human immunodeficiency virus type 1” (Antimicrob Agents Chemother, 2007).

pIC50: −log10 of the molar value.

Usually pIC50 stands for the IC50 on a negative log10 scale, so that one unit is a factor of ten. A high value points to a low IC50. For `COC(=O)N[C@H](C(=O)NCCCC[C@@H](CO)N(CC(C)C)S(=O)(=O)c1ccc(N)cc1)C(c1ccccc1)c1ccccc1` [PPL-100], the “fold change (FC)” value in assay [1] stood at 2.4. The Activity in assay [2] was found to be 1.2. Also, the pIC50 in assay [3] is under 4.30.
